Our source for the IC50 values is patent US11254688B2 (Boehringer Ingelheim International GmbH, priority 2018, dated 2022).

Counter-ions that a name gives are not always drawn.

The target in the test is T1, hGOAT (Homo sapiens, UniProt Q96T53).
T1 construct: expressed in transfected cells; host or cells: HEK293 (Hek293 hGOAT/PPGhrl Clone #1B8)
T1 sequence (Q96T53 1-435): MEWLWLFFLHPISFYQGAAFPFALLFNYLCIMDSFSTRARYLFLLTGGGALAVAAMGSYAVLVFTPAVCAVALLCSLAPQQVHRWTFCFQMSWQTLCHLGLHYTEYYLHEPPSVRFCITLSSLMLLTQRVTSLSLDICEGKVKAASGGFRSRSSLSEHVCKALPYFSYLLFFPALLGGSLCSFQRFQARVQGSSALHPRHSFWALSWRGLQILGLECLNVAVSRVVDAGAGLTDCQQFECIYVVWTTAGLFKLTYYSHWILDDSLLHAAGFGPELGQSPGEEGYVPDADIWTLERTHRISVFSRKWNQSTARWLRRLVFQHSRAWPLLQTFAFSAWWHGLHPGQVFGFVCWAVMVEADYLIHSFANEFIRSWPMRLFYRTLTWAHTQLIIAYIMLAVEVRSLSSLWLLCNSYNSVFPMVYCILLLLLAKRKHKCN
Description: Determination of hGOAT activity in HEK293 cells after incubation with test compound (acyl-ghrelin ELISA). Conditions: HEK293 cells stably transfected with preproghrelin and human GOAT; octanoate-BSA 100 μM; 5 hours incubation; acyl-ghrelin in medium by ELISA; 8 compound concentrations. In kind it is cell-based.
As for `Cc1nc2nonc2c(N)c1Cc1ccc(C#N)c(OCC(F)(F)F)c1` [Compound 21.1, 4-({7-Amino-5-methyl-[1,2,5]oxadiazolo[3,4-b]pyridin-6-yl}methyl)-2-(2,2,2-trifluoroethoxy)benzonitrile], inhibition was half-maximal at 0.099 nM (IC50). With `Cc1nc2nonc2c(N)c1Cc1ccc(C#N)c(OCC(F)F)c1` [Compound 21.2, 4-({7-Amino-5-methyl-[1,2,5]oxadiazolo[3,4-b]pyridin-6-yl}methyl)-2-(2,2-difluoroethoxy)benzonitrile] the figure was 0.176 nM; with `Cc1nc2nonc2c(N)c1Cc1ccc(C#N)c(O[C@H]2CCNC2=O)c1` [Compound 21.3, 4-({7-Amino-5-methyl-[1,2,5]oxadiazolo[3,4-b]pyridin-6-yl}methyl)-2-{[(3S)-2-oxopyrrolidin-3-yl]oxy}benzonitrile], 1.58 nM. Then `Cc1nc2nonc2c(N)c1Cc1ccc(C#N)c(OCCC(F)(F)F)c1` [Compound 21.4, 4-({7-Amino-5-methyl-[1,2,5]oxadiazolo[3,4-b]pyridin-6-yl}methyl)-2-(3,3,3-trifluoropropoxy)benzonitrile], with 0.786 nM.

Turning to `Cc1nc2nonc2c(N)c1Cc1ccc(C#N)c(OCC2CC2(F)F)c1` (stereo not drawn) [Compound 21.5, 4-({7-Amino-5-methyl-[1,2,5]oxadiazolo[3,4-b]pyridin-6-yl}methyl)-2-[(2,2-difluorocyclopropyl)methoxy]benzonitrile], the IC50 – broadly, the midpoint of a concentration-inhibition curve – came to 0.198 nM. With `Cc1nc2nonc2c(N)c1Cc1ccc(C#N)c(OCC(C)(C)O)c1` [Compound 21.6, 4-({7-Amino-5-methyl-[1,2,5]oxadiazolo[3,4-b]pyridin-6-yl}methyl)-2-(2-hydroxy-2-methylpropoxy)benzonitrile] the figure was 0.15 nM; with `Cc1nc2nonc2c(N)c1Cc1ccc(C#N)c(OCC2(C(F)(F)F)CC2)c1` [Compound 21.7, 4-({7-Amino-5-methyl-[1,2,5]oxadiazolo[3,4-b]pyridin-6-yl}methyl)-2-{[1-(trifluoromethyl)cyclopropyl]methoxy}benzonitrile], 0.278 nM. As to `Cc1nc2nonc2c(N)c1Cc1ccc(C#N)c(OC2CCN(C)C2)c1` (stereo not drawn) [Compound 21.8, 4-(7-Amino-5-methyl-[1,2,5]oxadiazolo[3,4-b]pyridin-6-ylmethyl)-2-(1-methyl-pyrrolidin-3-yloxy)-benzonitrile], the IC50 was 1.09 nM. Then `Cc1nc2nonc2c(N)c1Cc1ccc(C#N)c(O[C@H]2CCC(=O)NC2)c1` [Compound 21.9, 4-({7-Amino-5-methyl-[1,2,5]oxadiazolo[3,4-b]pyridin-6-yl}methyl)-2-{[(3S)-6-oxopiperidin-3-yl]oxy}benzonitrile], with 17 nM; and `Cc1nc2nonc2c(N)c1Cc1ccc(OC2CCOC2)nc1` (stereo not drawn) [Compound 21.10, 5-Methyl-6-{[6-(oxolan-3-yloxy)pyridin-3-yl]methyl}-[1,2,5]oxadiazolo[3,4-b]pyridin-7-amine], with 2.57 nM. With `Cc1nc2nonc2c(N)c1Cc1ccc(OCC2(C)COC2)nc1` [Compound 21.11, 5-Methyl-6-({6-[(3-methyloxetan-3-yl)methoxy]pyridin-3-yl}methyl)-[1,2,5]oxadiazolo[3,4-b]pyridin-7-amine] the figure was 1.92 nM; with `Cc1nc2nonc2c(N)c1Cc1ccc(OC2CCOCC2)nc1` [Compound 21.12, 5-Methyl-6-[6-(tetrahydro-pyran-4-yloxy)-pyridin-3-ylmethyl]-[1,2,5]oxadiazolo[3,4-b]pyridin-7-ylamine], 0.978 nM; with `Cc1nc2nonc2c(N)c1Cc1ccc(Cl)cc1` [Compound 22.1, 6-[(4-Chlorophenyl)methyl]-5-methyl-[1,2,5]oxadiazolo[3,4-b]pyridin-7-amine], 0.432 nM. With `Cc1nc2nonc2c(N)c1C(=O)c1ccc(OC(F)(F)F)cc1` [Compound 22.2, 5-Methyl-6-[4-(trifluoromethoxy)benzoyl]-[1,2,5]oxadiazolo[3,4-b]pyridin-7-amine] the figure was 2.49 nM.

`Nc1c(Cc2ccc(Br)cc2)c(Cl)nc2nonc12` [Compound 23.1, 6-[(4-Bromophenyl)methyl]-5-chloro-[1,2,5]oxadiazolo[3,4-b]pyridin-7-amine] had an IC50 of 0.485 nM.

`Nc1c(Cc2ccc(C(F)(F)F)cc2)c(Cl)nc2nonc12` [Compound 23.2, 5-Chloro-6-{[4-(trifluoromethyl)phenyl]methyl}-[1,2,5]oxadiazolo[3,4-b]pyridin-7-amine]: the IC50 was determined as 0.232 nM. Then `Nc1c(Cc2ccc(OC(F)(F)F)cc2)c(Cl)nc2nonc12` [Compound 23.3, 5-Chloro-6-{[4-(trifluoromethoxy)phenyl]methyl}-[1,2,5]oxadiazolo[3,4-b]pyridin-7-amine], with 0.298 nM; and `COc1cc(Cc2c(Cl)nc3nonc3c2N)ccc1C(F)(F)F` [Compound 23.4, 5-Chloro-6-{[3-methoxy-4-(trifluoromethyl)phenyl]methyl}-[1,2,5]oxadiazolo[3,4-b]pyridin-7-amine], with 0.139 nM; and `Nc1c(Cc2ccc(F)cc2)c(Cl)nc2nonc12` [Compound 23.5, 5-Chloro-6-[(4-fluorophenyl)methyl]-[1,2,5]oxadiazolo[3,4-b]pyridin-7-amine], with 0.737 nM.

Regarding `COc1cc(Cc2c(Cl)nc3nonc3c2N)ccc1Br` [Compound 23.6, 6-[(4-Bromo-3-methoxyphenyl)methyl]-5-chloro-[1,2,5]oxadiazolo[3,4-b]pyridin-7-amine], the IC50 amounted to 0.078 nM.

In turn, `COc1cc(Cc2c(Cl)nc3nonc3c2N)ccc1C#N` [Compound 23.7, 4-({7-Amino-5-chloro-[1,2,5]oxadiazolo[3,4-b]pyridin-6-yl}methyl)-2-methoxybenzonitrile] showed an IC50 of 0.178 nM. Then `Nc1c(Cc2ccc(C(F)(F)F)cc2)c(Br)nc2nonc12` [Compound 24.1, 5-Bromo-6-{[4-(trifluoromethyl)phenyl]methyl}-[1,2,5]oxadiazolo[3,4-b]pyridin-7-amine], with 0.475 nM; and `Nc1c(Cc2ccc(C(F)(F)F)cc2)c(CO)nc2nonc12` [Compound 24.2, (7-Amino-6-{[4-(trifluoromethyl)phenyl]methyl}-[1,2,5]oxadiazolo[3,4-b]pyridin-5-yl)methanol], with 5.73 nM; and `CN(C)c1nc2nonc2c(N)c1Cc1ccc(C(F)(F)F)cc1` [Compound 24.3, N5,N5-Dimethyl-6-{[4-(trifluoromethyl)phenyl]methyl}-[1,2,5]oxadiazolo[3,4-b]pyridine-5,7-diamine Trifluoroacetic Acid Salt], with 6.12 nM. With `N#Cc1nc2nonc2c(N)c1Cc1ccc(C(F)(F)F)cc1` [Compound 24.4, 7-Amino-6-{[4-(trifluoromethyl)phenyl]methyl}-[1,2,5]oxadiazolo[3,4-b]pyridine-5-carbonitrile] the figure was 2.42 nM.

With `Nc1c(Cc2ccc(C(F)(F)F)cc2)c(C(F)F)nc2nonc12` [Compound 24.5, 5-(Difluoromethyl)-6-{[4-(trifluoromethyl)phenyl]methyl}-[1,2,5]oxadiazolo[3,4-b]pyridin-7-amine], half-maximal inhibition (IC50) required 0.289 nM. With `Cc1nc2nonc2c(N)c1Cc1ccc(Cl)nc1C(F)F` [Compound 25.1, 6-{[6-Chloro-2-(difluoromethyl)pyridin-3-yl]methyl}-5-methyl-[1,2,5]oxadiazolo[3,4-b]pyridin-7-amine] the figure was 3.5 nM. With `Cc1nc2nonc2c(N)c1Cc1cnc(Cl)cc1C(F)F` [Compound 25.2, 6-{[6-Chloro-4-(difluoromethyl)pyridin-3-yl]methyl}-5-methyl-[1,2,5]oxadiazolo[3,4-b]pyridin-7-amine] the figure was 4.84 nM; with `Cc1nc2nonc2c(N)c1Cc1ccc(Cl)nc1C(F)(F)F` [Compound 25.3, 6-{[6-Chloro-2-(trifluoromethyl)pyridin-3-yl]methyl}-5-methyl-[1,2,5]oxadiazolo[3,4-b]pyridin-7-amine], 7.36 nM; with `Cc1nc2nonc2c(N)c1Cc1cnc(Cl)c(C(F)(F)F)c1` [Compound 25.4, 6-{[6-chloro-5-(trifluoromethyl)pyridin-3-yl]methyl}-5-methyl-[1,2,5]oxadiazolo[3,4-b]pyridin-7-amine], 1.35 nM.
